# According to ChEMBL document CHEMBL1135206, “Albumin affinity tags increase peptide half-life in vivo” (Bioorg Med Chem Lett, 2002):
# Where a SMILES comes first, the peptide text is derived from it. Bridges are numbered along the chain shown (N, C = ends). The star is where a group is joined. X1 = CC(C)Cc1ccc([C@@H](C)C(=O)*)cc1
# Key:
# [1] = Clearance in male New Zealand white rabbits after administration via an indwelling catheter in an ear vein at 4.9 mg/kg; assay type: ADME, organism-based, Oryctolagus cuniculus; parameters: dose 4.9 mg/kg; details: rabbit, in vivo, iv
# Albumin = Albumin (Homo sapiens, UniProt P02768); test: In vitro binding affinity for human serum albumin.; parameters: unit not given here
# [2] = Mean retention time in male New Zealand white rabbits after i.v. administration at 2.0 mg/kg; assay type: ADME, organism-based, Oryctolagus cuniculus; parameters: dose 2 mg/kg, route intravenous; details: rabbit, in vivo, iv
# [3] = Clearance in male New Zealand white rabbits after i.v. administration at 2.0 mg/kg; assay type: ADME, organism-based, Oryctolagus cuniculus; parameters: dose 2 mg/kg, route intravenous; details: rabbit, in vivo, iv
# [4] = Plasma half-life in male New Zealand white rabbits after i.v. administration at 2.0 mg/kg; assay type: ADME, organism-based, Oryctolagus cuniculus; parameters: dose 2 mg/kg, route intravenous; details: rabbit, iv
# [5] = Plasma half-life in male New Zealand white rabbits after administration via an indwelling catheter in an ear vein at 4.9 mg/kg; assay type: ADME, organism-based, Oryctolagus cuniculus; parameters: dose 4.9 mg/kg; details: rabbit, iv
# [6] = Mean retention time in male New Zealand white rabbits after administration via an indwelling catheter in an ear vein at 4.9 mg/kg; assay type: ADME, organism-based, Oryctolagus cuniculus; parameters: dose 4.9 mg/kg; details: rabbit, in vivo, iv
# Coagulation factor VII = target: T1, Coagulation factor VII (Homo sapiens, UniProt P08709); test: Inhibition of amino terminally biotinylated E-76 peptide binding to immobilized fVIIa
# T1 sequence (P08709 whole entry): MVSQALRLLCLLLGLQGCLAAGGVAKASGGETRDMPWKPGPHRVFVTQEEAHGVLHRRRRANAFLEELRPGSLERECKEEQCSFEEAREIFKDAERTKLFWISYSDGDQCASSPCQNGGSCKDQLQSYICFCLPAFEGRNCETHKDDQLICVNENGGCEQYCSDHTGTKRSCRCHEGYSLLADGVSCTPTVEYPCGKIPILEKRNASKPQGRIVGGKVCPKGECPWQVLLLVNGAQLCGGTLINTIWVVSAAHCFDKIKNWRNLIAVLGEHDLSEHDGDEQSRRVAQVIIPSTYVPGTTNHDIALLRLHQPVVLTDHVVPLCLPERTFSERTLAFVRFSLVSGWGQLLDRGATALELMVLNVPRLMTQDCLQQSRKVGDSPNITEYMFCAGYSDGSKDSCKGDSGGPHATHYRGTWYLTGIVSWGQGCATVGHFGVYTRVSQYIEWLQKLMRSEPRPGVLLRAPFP
# Chain of Albumin (P02768 whole entry): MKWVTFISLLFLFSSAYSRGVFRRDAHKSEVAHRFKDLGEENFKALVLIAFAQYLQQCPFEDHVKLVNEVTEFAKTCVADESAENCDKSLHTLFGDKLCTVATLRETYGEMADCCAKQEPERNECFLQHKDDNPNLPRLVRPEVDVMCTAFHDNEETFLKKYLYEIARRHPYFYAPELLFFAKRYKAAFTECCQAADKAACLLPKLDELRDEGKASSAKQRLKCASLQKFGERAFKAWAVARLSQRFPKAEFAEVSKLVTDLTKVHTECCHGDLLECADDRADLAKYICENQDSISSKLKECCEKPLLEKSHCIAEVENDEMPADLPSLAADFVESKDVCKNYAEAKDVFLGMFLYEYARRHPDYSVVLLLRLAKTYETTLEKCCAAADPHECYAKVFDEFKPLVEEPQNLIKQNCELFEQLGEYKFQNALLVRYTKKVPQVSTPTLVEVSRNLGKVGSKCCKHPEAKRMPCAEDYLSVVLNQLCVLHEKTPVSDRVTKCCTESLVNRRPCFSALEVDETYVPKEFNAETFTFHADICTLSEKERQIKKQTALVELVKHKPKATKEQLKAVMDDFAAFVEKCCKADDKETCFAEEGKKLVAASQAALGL
compound,measurement,setting,value
CC[C@H](C)[C@@H]1NC(=O)[C@H](CCCN=C(N)N)NC(=O)[C@@H]2CCCN2C(=O)[C@H](CC(N)=O)NC(=O)[C@H](CC(=O)O)NC(=O)[C@@H](NC(=O)[C@H](CC(C)C)NC(=O)[C@H](C)NC(=O)[C@H](C)c2ccc(CC(C)C)cc2)CSSC[C@@H](C(=O)N[C@@H](CCC(N)=O)C(=O)N[C@@H](Cc2ccccc2)C(=O)N[C@H](C(=O)N[C@@H](CCC(=O)O)C(=O)NCC(N)=O)C(C)C)NC(=O)[C@H](Cc2ccc(O)cc2)NC(=O)[C@H](Cc2c[nH]c3ccccc23)NC(=O)[C@H](CCCN=C(N)N)NC(=O)[C@H](CC(=O)O)NC1=O (X1-ALCDNPRIDRWYCQFVEG-NH2; disulfide 3-13),clearance,[1],1.5 mL/min/kg
same,Binding affinity,Albumin,0.76
same,MRT,[2],19 min
same,clearance,[3],1.8 mL/min/kg
same,half-life,[4],17 min
same,half-life,[5],24 min
same,MRT,[6],33 min
same,IC50,Coagulation factor VII,14.6 nM
